How the values were obtained:
Assay in all cases: Kinase selectivity panel
Type in all cases: biochemical
Settings in all cases: read-out: Inhibition(%) @ 1 µM RK-019
[1] = biological target: T1, PRP4(h) (Homo sapiens, UniProt Q13523)
T1 construct: purchased Eurofins Discovery Services (KinaseProfiler)
In short: (§1)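 ATP-site competition binding, in vitro; recombinant human kinase, single concentration 1 µM; % inhibition read-out.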

[2] = biological target: T2, SRPK1(h) (Homo sapiens, UniProt Q96SB4)
T2 construct: purchased Eurofins Discovery Services (KinaseProfiler)
In short: as §1

[3] = biological target: T3, EGFR(L861Q)(h) (Homo sapiens, UniProt P00533, L861Q)
T3 construct: purchased Eurofins Discovery Services (KinaseProfiler)
In short: as §1

[4] = biological target: T4, DCAMKL2(h) (Homo sapiens, UniProt Q8N568)
T4 construct: purchased Eurofins Discovery Services (KinaseProfiler)
In short: as §1

[5] = biological target: T5, LOK(h) (Homo sapiens, UniProt O94804)
T5 construct: purchased Eurofins Discovery Services (KinaseProfiler)
T5 sequence (O94804 whole entry): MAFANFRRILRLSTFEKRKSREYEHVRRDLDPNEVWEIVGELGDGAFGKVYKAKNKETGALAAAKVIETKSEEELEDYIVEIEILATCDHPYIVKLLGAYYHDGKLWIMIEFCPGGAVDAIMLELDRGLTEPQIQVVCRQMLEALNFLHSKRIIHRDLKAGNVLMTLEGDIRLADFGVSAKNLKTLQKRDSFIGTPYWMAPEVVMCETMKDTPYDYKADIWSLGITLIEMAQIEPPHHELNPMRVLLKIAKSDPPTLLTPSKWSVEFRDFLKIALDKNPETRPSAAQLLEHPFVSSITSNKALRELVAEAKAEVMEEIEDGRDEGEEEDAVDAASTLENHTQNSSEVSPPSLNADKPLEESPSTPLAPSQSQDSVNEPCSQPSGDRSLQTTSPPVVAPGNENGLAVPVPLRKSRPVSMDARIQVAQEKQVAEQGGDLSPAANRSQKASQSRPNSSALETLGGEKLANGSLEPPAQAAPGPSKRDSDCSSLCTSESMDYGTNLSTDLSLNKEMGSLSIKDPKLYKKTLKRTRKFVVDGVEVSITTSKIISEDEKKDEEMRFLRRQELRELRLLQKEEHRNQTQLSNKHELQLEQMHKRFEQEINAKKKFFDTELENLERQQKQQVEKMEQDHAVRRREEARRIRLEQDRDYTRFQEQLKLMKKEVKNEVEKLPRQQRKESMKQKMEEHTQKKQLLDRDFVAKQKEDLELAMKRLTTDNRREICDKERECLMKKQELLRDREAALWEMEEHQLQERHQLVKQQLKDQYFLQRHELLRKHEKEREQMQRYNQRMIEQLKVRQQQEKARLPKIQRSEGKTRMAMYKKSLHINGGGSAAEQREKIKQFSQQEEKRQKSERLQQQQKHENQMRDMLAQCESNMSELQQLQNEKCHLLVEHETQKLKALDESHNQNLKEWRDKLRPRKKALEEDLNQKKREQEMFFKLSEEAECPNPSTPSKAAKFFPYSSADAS
In short: as §1

[6] = biological target: T6, Tie2(R849W)(h) (Homo sapiens, UniProt Q02763, R849W)
T6 construct: purchased Eurofins Discovery Services (KinaseProfiler)
In short: as §1

[7] = biological target: T7, ErbB2(h) (Homo sapiens, UniProt P04626)
T7 construct: purchased Eurofins Discovery Services (KinaseProfiler)
In short: as §1

[8] = biological target: T8, MAP4K3(h) (Homo sapiens, UniProt Q8IVH8)
T8 construct: purchased Eurofins Discovery Services (KinaseProfiler)
In short: as §1

[9] = biological target: T9, Rsk1(h) (Homo sapiens, UniProt Q15418)
T9 construct: purchased Eurofins Discovery Services (KinaseProfiler)
T9 sequence (Q15418 whole entry): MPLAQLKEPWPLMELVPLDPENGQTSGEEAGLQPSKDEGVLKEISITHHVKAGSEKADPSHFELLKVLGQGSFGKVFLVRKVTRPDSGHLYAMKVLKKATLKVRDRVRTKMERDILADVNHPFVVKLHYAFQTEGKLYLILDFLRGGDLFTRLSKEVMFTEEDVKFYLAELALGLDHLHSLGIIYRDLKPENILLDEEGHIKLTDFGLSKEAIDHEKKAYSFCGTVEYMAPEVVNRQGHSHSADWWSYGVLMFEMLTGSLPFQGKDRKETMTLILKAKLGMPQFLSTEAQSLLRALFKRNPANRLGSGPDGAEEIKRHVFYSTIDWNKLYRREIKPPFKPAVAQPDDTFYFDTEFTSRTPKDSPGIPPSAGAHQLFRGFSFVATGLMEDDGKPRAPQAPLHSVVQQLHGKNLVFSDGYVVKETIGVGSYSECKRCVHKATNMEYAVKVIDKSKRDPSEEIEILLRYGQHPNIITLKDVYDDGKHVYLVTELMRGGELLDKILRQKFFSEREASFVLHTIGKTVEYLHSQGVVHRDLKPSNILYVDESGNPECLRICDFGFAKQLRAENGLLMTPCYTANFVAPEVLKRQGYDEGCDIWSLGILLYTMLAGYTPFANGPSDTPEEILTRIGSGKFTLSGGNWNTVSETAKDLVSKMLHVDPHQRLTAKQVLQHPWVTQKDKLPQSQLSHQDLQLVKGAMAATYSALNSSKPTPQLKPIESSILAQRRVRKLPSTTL
In short: as §1

[10] = biological target: T10, Flt3(h) (Homo sapiens, UniProt P36888)
T10 construct: purchased Eurofins Discovery Services (KinaseProfiler)
In short: as §1

[11] = biological target: T11, VRK1(h) (Homo sapiens, UniProt Q99986)
T11 construct: purchased Eurofins Discovery Services (KinaseProfiler)
In short: as §1

[12] = biological target: T12, Abl(T315I)(h) (Homo sapiens, UniProt P00519, T315I)
T12 construct: purchased Eurofins Discovery Services (KinaseProfiler)
In short: as §1

[13] = biological target: T13, STK32A(h) (Homo sapiens, UniProt Q8WU08)
T13 construct: purchased Eurofins Discovery Services (KinaseProfiler)
In short: as §1

[14] = biological target: T14, Hck(h) (Homo sapiens, UniProt P08631)
T14 construct: purchased Eurofins Discovery Services (KinaseProfiler)
In short: as §1

[15] = biological target: T15, CDK17/cyclinY(h) (Homo sapiens, UniProt Q00537)
T15 construct: purchased Eurofins Discovery Services (KinaseProfiler)
In short: as §1

[16] = biological target: T16, ATR/ATRIP(h) (Homo sapiens, UniProt Q13535)
T16 construct: purchased Eurofins Discovery Services (KinaseProfiler)
In short: as §1

[17] = biological target: T17, PRAK(h) (Homo sapiens, UniProt Q8IW41)
T17 construct: purchased Eurofins Discovery Services (KinaseProfiler)
In short: as §1

[18] = biological target: T18, Fer(h) (Homo sapiens, UniProt P16591)
T18 construct: purchased Eurofins Discovery Services (KinaseProfiler)
In short: as §1

[19] = biological target: T19, ICK(h) (Homo sapiens, UniProt Q9UPZ9)
T19 construct: purchased Eurofins Discovery Services (KinaseProfiler)
T19 sequence (Q9UPZ9 whole entry): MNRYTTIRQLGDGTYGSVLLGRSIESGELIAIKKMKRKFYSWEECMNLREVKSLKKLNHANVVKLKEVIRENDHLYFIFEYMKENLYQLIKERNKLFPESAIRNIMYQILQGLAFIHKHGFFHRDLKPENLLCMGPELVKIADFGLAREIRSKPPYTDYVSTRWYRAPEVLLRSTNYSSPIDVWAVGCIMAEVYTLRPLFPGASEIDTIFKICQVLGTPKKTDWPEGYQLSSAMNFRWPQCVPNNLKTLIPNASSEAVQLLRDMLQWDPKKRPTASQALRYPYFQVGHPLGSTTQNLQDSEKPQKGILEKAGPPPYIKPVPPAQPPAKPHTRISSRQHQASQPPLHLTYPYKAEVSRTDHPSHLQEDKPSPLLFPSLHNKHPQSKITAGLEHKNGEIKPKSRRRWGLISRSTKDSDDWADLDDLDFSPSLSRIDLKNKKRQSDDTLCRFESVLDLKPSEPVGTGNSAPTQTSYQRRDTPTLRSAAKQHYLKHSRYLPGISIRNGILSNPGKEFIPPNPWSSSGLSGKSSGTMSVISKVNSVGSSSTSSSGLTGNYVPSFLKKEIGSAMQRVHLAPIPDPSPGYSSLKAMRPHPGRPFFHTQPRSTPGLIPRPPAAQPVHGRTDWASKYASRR
In short: as §1

[20] = biological target: T20, IKKε(h) (Homo sapiens, UniProt Q14164)
T20 construct: purchased Eurofins Discovery Services (KinaseProfiler)
T20 sequence (Q14164 whole entry): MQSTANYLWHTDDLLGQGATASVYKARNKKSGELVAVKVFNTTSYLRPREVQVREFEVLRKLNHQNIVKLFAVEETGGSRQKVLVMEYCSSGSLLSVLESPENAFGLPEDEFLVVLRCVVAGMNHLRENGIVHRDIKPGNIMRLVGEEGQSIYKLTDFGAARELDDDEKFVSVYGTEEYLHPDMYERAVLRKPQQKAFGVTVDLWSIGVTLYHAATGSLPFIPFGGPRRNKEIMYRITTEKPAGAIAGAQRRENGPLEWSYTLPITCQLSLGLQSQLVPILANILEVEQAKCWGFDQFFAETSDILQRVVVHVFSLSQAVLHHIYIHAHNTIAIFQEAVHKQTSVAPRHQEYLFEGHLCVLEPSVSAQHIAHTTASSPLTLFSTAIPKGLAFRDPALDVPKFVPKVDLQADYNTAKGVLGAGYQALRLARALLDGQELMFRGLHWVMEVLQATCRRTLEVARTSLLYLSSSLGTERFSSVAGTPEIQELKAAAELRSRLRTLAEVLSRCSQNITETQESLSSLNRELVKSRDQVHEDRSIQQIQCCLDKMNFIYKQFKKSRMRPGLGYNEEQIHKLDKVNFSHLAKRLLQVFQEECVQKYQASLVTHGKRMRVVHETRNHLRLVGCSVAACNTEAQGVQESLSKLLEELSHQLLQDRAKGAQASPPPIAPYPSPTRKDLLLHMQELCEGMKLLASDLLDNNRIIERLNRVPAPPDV
In short: as §1

[21] = biological target: T21, CaMKI(h) (Homo sapiens, UniProt Q14012)
T21 construct: purchased Eurofins Discovery Services (KinaseProfiler)
In short: as §1

[22] = biological target: T22, TNIK(h) (Homo sapiens, UniProt Q9UKE5)
T22 construct: purchased Eurofins Discovery Services (KinaseProfiler)
In short: as §1

[23] = biological target: T23, PI3 Kinase (p110a(E545K)/p85a)(m) (Mus musculus, UniProt P42337, E545K)
T23 construct: purchased Eurofins Discovery Services (KinaseProfiler)

[24] = biological target: T24, A-Raf(h) (Homo sapiens, UniProt P10398)
T24 construct: purchased Eurofins Discovery Services (KinaseProfiler)
In short: as §1

[25] = biological target: T25, MST4(h) (Homo sapiens, UniProt Q9P289)
T25 construct: purchased Eurofins Discovery Services (KinaseProfiler)
In short: as §1

[26] = biological target: T26, GRK1(h) (Homo sapiens, UniProt Q15835)
T26 construct: purchased Eurofins Discovery Services (KinaseProfiler)
In short: as §1

[27] = biological target: T27, GRK2(h) (Homo sapiens, UniProt P25098)
T27 construct: purchased Eurofins Discovery Services (KinaseProfiler)
T27 sequence (P25098 whole entry): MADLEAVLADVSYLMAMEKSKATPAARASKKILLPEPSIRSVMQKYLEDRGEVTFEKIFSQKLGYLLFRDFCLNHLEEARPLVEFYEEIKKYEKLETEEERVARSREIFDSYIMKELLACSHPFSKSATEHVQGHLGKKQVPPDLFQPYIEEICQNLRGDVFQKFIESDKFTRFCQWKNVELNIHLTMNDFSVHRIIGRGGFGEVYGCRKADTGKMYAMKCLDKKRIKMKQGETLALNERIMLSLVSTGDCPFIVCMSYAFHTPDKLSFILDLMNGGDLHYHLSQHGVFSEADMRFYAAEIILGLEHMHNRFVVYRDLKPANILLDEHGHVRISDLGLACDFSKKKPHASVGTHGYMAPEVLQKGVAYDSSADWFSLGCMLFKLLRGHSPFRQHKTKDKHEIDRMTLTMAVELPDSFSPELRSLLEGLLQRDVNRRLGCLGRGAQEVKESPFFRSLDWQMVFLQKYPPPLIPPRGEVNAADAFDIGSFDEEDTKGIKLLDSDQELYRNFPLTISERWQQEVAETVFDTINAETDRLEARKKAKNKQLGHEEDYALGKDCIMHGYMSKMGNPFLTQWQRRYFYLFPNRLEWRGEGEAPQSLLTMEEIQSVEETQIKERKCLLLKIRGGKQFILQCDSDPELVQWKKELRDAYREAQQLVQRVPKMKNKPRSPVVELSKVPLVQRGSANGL
In short: as §1

[28] = biological target: T28, SAPK3(h) (Homo sapiens, UniProt P53778)
T28 construct: purchased Eurofins Discovery Services (KinaseProfiler)
In short: as §1

[29] = biological target: T29, PKG1α(h) (Homo sapiens, UniProt Q13976)
T29 construct: purchased Eurofins Discovery Services (KinaseProfiler)
In short: as §1

[30] = biological target: T30, SIK3(h) (Homo sapiens, UniProt Q9Y2K2)
T30 construct: purchased Eurofins Discovery Services (KinaseProfiler)
T30 sequence (Q9Y2K2 whole entry): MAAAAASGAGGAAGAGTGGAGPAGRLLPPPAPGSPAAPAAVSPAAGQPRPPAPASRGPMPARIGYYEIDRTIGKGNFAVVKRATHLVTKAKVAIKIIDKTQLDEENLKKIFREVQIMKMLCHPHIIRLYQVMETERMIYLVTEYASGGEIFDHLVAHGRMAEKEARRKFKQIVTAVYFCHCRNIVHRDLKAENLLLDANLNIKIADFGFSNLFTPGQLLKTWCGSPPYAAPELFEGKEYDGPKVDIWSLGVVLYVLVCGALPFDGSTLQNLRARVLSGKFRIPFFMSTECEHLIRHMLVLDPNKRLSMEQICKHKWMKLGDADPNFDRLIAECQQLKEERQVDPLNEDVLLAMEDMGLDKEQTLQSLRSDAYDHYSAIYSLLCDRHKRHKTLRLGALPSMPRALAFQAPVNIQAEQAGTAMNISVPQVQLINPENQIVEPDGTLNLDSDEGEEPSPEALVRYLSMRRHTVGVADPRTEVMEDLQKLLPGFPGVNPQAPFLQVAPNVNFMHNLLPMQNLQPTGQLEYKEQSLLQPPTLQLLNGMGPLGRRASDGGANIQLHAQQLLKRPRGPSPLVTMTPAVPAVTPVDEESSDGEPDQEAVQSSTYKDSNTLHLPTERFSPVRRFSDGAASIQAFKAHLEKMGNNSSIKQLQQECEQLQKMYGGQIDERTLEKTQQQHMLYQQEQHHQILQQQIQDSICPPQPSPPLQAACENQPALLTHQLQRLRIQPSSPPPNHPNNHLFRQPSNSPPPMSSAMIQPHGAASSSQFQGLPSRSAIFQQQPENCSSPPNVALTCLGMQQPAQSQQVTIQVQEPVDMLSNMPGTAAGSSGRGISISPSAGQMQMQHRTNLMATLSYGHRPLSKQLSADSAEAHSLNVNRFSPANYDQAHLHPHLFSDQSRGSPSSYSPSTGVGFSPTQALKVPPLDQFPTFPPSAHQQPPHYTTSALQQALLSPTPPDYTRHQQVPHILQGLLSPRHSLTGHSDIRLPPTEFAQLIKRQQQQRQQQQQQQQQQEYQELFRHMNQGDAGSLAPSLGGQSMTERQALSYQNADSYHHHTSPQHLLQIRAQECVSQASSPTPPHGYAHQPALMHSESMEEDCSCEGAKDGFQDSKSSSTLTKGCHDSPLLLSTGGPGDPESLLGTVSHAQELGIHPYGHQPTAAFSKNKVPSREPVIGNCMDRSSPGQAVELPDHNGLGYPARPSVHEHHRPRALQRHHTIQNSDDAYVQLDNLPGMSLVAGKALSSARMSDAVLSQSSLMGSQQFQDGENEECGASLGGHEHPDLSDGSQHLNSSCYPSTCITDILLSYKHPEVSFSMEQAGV
In short: as §1

[31] = biological target: T31, CHK2(I157T)(h) (Homo sapiens, UniProt O96017, I157T)
T31 construct: purchased Eurofins Discovery Services (KinaseProfiler)
In short: as §1

[32] = biological target: T32, CDKL4(h) (Homo sapiens, UniProt Q5MAI5)
T32 construct: purchased Eurofins Discovery Services (KinaseProfiler)
In short: as §1

[33] = biological target: T33, MINK(h) (Homo sapiens, UniProt Q8N4C8)
T33 construct: purchased Eurofins Discovery Services (KinaseProfiler)
In short: as §1

[34] = biological target: T34, ZAK(h) (Homo sapiens, UniProt Q9NYL2)
T34 construct: purchased Eurofins Discovery Services (KinaseProfiler)
In short: as §1

[35] = biological target: T35, PI3 Kinase (p110a(H1047R)/p85a)(m) (Mus musculus, UniProt P42337, H1047R)
T35 construct: purchased Eurofins Discovery Services (KinaseProfiler)

[36] = biological target: T36, MKK6(h) (Homo sapiens, UniProt P52564)
T36 construct: purchased Eurofins Discovery Services (KinaseProfiler)
In short: as §1

[37] = biological target: T37, MEKK2(h) (Homo sapiens, UniProt Q9Y2U5)
T37 construct: purchased Eurofins Discovery Services (KinaseProfiler)
In short: as §1

COc1cc(OC)cc(N(CCN[C@H](C)CO)c2ccc3ncc(-c4cnn(C)c4)c(=O)n3c2)c1 [RK-019, (R)-7-((3,5-dimethoxyphenyl) (2-((1-hydroxypropan-2-yl)amino)ethyl)amino)-3-(1-methyl-1H-pyrazol-4-yl)-4H-pyrido [1,2-a]pyrimidin-4-one]
activity at 1 µM [1]: 90%
activity at 1 µM [2]: 112%
activity at 1 µM [3]: 103%
activity at 1 µM [4]: 126%
activity at 1 µM [5]: 76%
activity at 1 µM [6]: 82%
activity at 1 µM [7]: 94%
activity at 1 µM [8]: 132%
activity at 1 µM [9]: 120%
activity at 1 µM [10]: 123%
activity at 1 µM [11]: 98%
activity at 1 µM [12]: 66%
activity at 1 µM [13]: 86%
activity at 1 µM [14]: 27%
activity at 1 µM [15]: 104%
activity at 1 µM [16]: 107%
activity at 1 µM [17]: 95%
activity at 1 µM [18]: 127%
activity at 1 µM [19]: 119%
activity at 1 µM [20]: 107%
activity at 1 µM [21]: 101%
activity at 1 µM [22]: 42%
activity at 1 µM [23]: 102%
activity at 1 µM [24]: 133%
activity at 1 µM [25]: 90%
activity at 1 µM [26]: 94%
activity at 1 µM [27]: 103%
activity at 1 µM [28]: 99%
activity at 1 µM [29]: 110%
activity at 1 µM [30]: 104%
activity at 1 µM [31]: 100%
activity at 1 µM [32]: 90%
activity at 1 µM [33]: 133%
activity at 1 µM [34]: 80%
activity at 1 µM [35]: 100%
activity at 1 µM [36]: 83%
activity at 1 µM [37]: 96%
